According to publication PMC3265452 (PLoS Neglected Tropical Diseases, 2012):
Where a name gives a salt, the structure may show the parent alone. Read-outs that look alike come from different tables or passages of the source.

Molecular target: AaDOP2 (Aedes aegypti, UniProt H6D5H2)
Experiment: AaDOP2 antagonist screen of the LOPAC1280 library (HEK-CRELuc-Aadop2 cells, luminescence)
Assay type: cell-based
[1] = 10 µM compound, 300 nM dopamine, 2 hr, hit = compound effect <20

Sequence of AaDOP2 (H6D5H2 1-476): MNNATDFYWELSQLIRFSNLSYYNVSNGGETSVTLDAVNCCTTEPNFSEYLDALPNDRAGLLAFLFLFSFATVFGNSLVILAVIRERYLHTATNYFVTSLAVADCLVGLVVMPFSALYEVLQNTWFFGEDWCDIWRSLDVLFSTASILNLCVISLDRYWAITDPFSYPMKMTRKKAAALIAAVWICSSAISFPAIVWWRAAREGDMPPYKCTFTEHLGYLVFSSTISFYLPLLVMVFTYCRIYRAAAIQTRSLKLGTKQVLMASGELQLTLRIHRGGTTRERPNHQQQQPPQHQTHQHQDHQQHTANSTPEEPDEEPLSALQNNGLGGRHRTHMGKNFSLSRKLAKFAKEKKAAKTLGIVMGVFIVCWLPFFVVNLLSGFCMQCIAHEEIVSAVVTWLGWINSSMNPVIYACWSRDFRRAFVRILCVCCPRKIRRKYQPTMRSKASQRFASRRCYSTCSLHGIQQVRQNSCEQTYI

SMILES | Compound effect (percent receptor signaling in presence of test compound, relative lux units relative to the SCH23390 control) | further results
CCn1c(=O)[nH]c2cc(Cl)c(Cl)cc21 [Compound 428, DCEBIO] | 67 | 
OC[C@H]1NC[C@H](O)[C@@H](O)[C@@H]1O [Compound 429, 1-Deoxynojirimycin hydrochloride] | 116 | 
N[C@@H](Cc1ccc(O)c(O)c1)C(=O)O [Compound 430, L-3,4-Dihydroxyphenylalanine] | 91 | 
COc1cc2nc(N3CCN(C(=O)C4COc5ccccc5O4)CC3)nc(N)c2cc1OC (centres unmarked) [Compound 432, Doxazosin mesylate] | 86 | 
C[C@H]1c2cccc(O)c2C(=O)C2=C(O)[C@]3(O)C(=O)C(C(N)=O)=C(O)[C@@H](N(C)C)[C@@H]3[C@@H](O)[C@@H]21 [Compound 433, Doxycycline hydrochloride] | 103 | 
Br.NC1CCc2cc(O)c(O)cc2C1 (centres unmarked) [Compound 434, 6,7-ADTN hydrobromide] | 118 | 
Br.CN1CCc2cc(O)cc3c2[C@H]1Cc1ccc(O)c(O)c1-3 [Compound 437, R(-)-2,10,11-Trihydroxyaporphine hybrobromide] |  | Compound effect (percent receptor signaling in presence of test compound, relative lux units relative to the SCH23390 control) [1]: 71%
CCCN(CCC)CCc1ccc(O)c(O)c1 [Compound 439, Dipropyldopamine hydrobromide] | 106 | 
Br.C=CCN1CCc2cccc3c2[C@H]1Cc1ccc(O)c(O)c1-3 [Compound 441, R(-)-N-Allylnorapomorphine hydrobromide] | 87 | 
CCn1cc(C(=O)O)c(=O)c2ccc(Cc3ccccc3)nc21 [Compound 442, Amfonelic acid] | 96 | 
O=C1NC(c2cccc([N+](=O)[O-])c2)=CCN1c1ccccc1O [Compound 443, Icilin] | 87 | 
Cl.Cl.Fc1ccc(C(OCCN2CCN(CCCc3ccccc3)CC2)c2ccc(F)cc2)cc1 [Compound 445, GBR-12909 dihydrochloride] |  | Compound effect (percent receptor signaling in presence of test compound, relative lux units relative to the SCH23390 control) [1]: 59%
C[N+]1(C)CCC(OC(=O)C(c2ccccc2)c2ccccc2)CC1.[I-] [Compound 449, 4-DAMP methiodide] |  | Compound effect (percent receptor signaling in presence of test compound, relative lux units relative to the SCH23390 control) [1]: 97%
CCCn1c(=O)c2c(ncn2C)n(CCC)c1=O [Compound 450, 1,3-Dipropyl-7-methylxanthine] | 123 | 
CC(C)c1cccc(C(C)C)c1O [Compound 452, Propofol] | 94 | 
CN1CC[C@@]23CCCC[C@@H]2[C@@H]1Cc1ccc(O)cc13.O=C(O)C(O)C(O)C(=O)O [Compound 453, Dextrorphan D-tartrate] | 107 | 
CCCCC1(C2CCCC2)Cc2cc(OCC(=O)O)c(Cl)c(Cl)c2C1=O (stereo not drawn) [Compound 454, R(+)-Butylindazone] |  | Compound effect (percent receptor signaling in presence of test compound, relative lux units relative to the SCH23390 control) [1]: 97%
COc1cc(OC)cc(C(CNc2ncnc3c2ncn3[C@@H]2O[C@H](CO)[C@@H](O)[C@H]2O)c2ccccc2C)c1 (some centres unmarked) [Compound 455, DPMA] | 110 | 
O=[N+]([O-])c1cc(O)c(O)c([N+](=O)[O-])c1 [Compound 456, 3,5-Dinitrocatechol] | 95 | 
CCCN(CCC)CCc1c[nH]c2ccc(C(N)=O)cc12.O=C(O)/C=C\C(=O)O [Compound 457, N,N-Dipropyl-5-carboxamidotryptamine maleate] | 106 | 
O=C1N=c2cc(Cl)c(Cl)cc2=NC1=O [Compound 458, 6,7-Dichloroquinoxaline-2,3-dione] | 129 | 
C#CCn1c(=O)c2c(ncn2C)n(C)c1=O [Compound 459, 3,7-Dimethyl-I-propargylxanthine] | 101 | 
O=C(O)c1cc(=O)c2c(Cl)cc(Cl)cc2[nH]1 [Compound 460, 5,7-Dichlorokynurenic acid] |  | Compound effect (percent receptor signaling in presence of test compound, relative lux units relative to the SCH23390 control) [1]: 102%
Cl.O=C(OC1CCN(CCCl)CC1)C(c1ccccc1)c1ccccc1 [Compound 461, 4-Diphenylacetoxy-N-(2-chloroethyl)piperidine hydrochloride] | 99 | 
NCCCCCCCCCCN [Compound 462, 1,10-Diaminodecane] | 99 | 

SMILES | Compound effect (percent receptor signaling in presence of test compound, relative lux units relative to the SCH23390 control) | further results
Br.CO[C@H]1CC=C2CCN3CCC4=C(CC(=O)OC4)[C@]23C1 [Compound 463, Dihydro-beta-erythroidine hydrobromide] | 103 | 
COc1cc(C[C@@H](C)N)c(OC)cc1I.Cl [Compound 464, ( R)-(-)-DOI hydrochloride] | 69 | 
CC(C)[C@@]1(NC(=O)[C@@H]2C[C@@H]3c4cccc5[nH]cc(c45)C[C@H]3N(C)C2)O[C@@]2(O)[C@@H]3CCCN3C(=O)[C@H](Cc3ccccc3)N2C1=O.CS(=O)(=O)O [Compound 465, Dihydroergocristine methanesulfonate] | 32 | 
Nc1cc(=O)[nH]c(N)n1 [Compound 466, 2,6-Diamino-4-pyrimidinone] | 114 | 
CN1C2CCC1CC(OC(c1ccc(F)cc1)c1ccc(F)cc1)C2.Cl (stereo not drawn) [Compound 468, 4',4''-Difluor-3alpha-(diphenylmethoxy)tropane hydrochloride] | 123 | 
CCCN1CCC[C@@H](c2cccc(C#N)c2)C1.Cl [Compound 469, S(-)-DS 121 hydrochloride] |  | Compound effect (percent receptor signaling in presence of test compound, relative lux units relative to the SCH23390 control) [1]: 94%
CCN(CC)C(=O)c1ccc(O)c(OC)c1 [Compound 470, Vanillic acid diethylamide] |  | Compound effect (percent receptor signaling in presence of test compound, relative lux units relative to the SCH23390 control) [1]: 101%
CC(C)C[C@H](NC(=O)[C@H](O)[C@H](N)Cc1ccccc1)C(=O)O [Compound 471, Epibestatin hydrochloride] | 107 | 
CCc1cccc2c3c([nH]c12)C(CC)(CC(=O)O)OCC3 (centres unmarked) [Compound 472, Etodolac] | 98 | 
CSc1ccc(C(=O)c2[nH]c(=O)[nH]c2C)cc1 [Compound 473, Enoximone] | 103 | 
COc1cc([C@@H]2c3cc4c(cc3[C@@H](O[C@@H]3O[C@@H]5CO[C@@H](C)O[C@H]5[C@H](O)[C@H]3O)[C@H]3COC(=O)[C@H]23)OCO4)cc(OC)c1O [Compound 474, Etoposide] | 90 | 
CCCCCCCCCCCCCCCCCCOCC(COP(=O)([O-])OCC[N+](C)(C)C)OC (centres unmarked) [Compound 475, ET-18-OCH3] |  | Compound effect (percent receptor signaling in presence of test compound, relative lux units relative to the SCH23390 control) [1]: 113%
CCOC(=O)c1cnc2c(cnn2CC)c1NN=C(C)C [Compound 476, Etazolate hydrochloride] | 136 | 
Nc1ncnc2c1c(-c1ccc(Oc3ccccc3)cc1)cn2C1CCCC1 [Compound 477, 7-Cyclopentyl-5-(4-phenoxy)phenyl-7H-pyrrolo[2,3-d]pyrimidin-4-ylamine] |  | Compound effect (percent receptor signaling in presence of test compound, relative lux units relative to the SCH23390 control) [1]: 76%
CC[C@H]1CN2CCc3cc(OC)c(OC)cc3[C@@H]2C[C@@H]1C[C@H]1NCCc2cc(OC)c(OC)cc21 [Compound 478, Emetine dihydrochloride hydrate] | 14 | inhibition at 10 µM (read-out: % of the SCH23390 effect (percent inhibition of receptor response relative to the SCH23390 control)): 86%
CC(C)C[C@H](NC(=O)[C@H]1O[C@@H]1C(=O)O)C(=O)NCCCCN=C(N)N [Compound 480, E-64] | 112 | 
Br.CCSC(=N)N [Compound 482, S-Ethylisothiourea hydrobromide] |  | Compound effect (percent receptor signaling in presence of test compound, relative lux units relative to the SCH23390 control) [1]: 104%
CN[C@@H](C)[C@H](O)c1ccccc1.CN[C@@H](C)[C@H](O)c1ccccc1.O=S(=O)(O)O [Compound 483, (-)-Ephedrine hemisulfate] | 60 | 
CC[N+](C)(C)c1cccc(O)c1 [Compound 484, Edrophonium chloride] | 118 | 
CCC1(C2=NCCN2)Cc2ccccc2O1 (centres unmarked) [Compound 485, Efaroxan hydrochloride] | 74 | 
Cc1c2ccncc2c(C)c2c1[nH]c1ccccc12 [Compound 486, Ellipticine] | 98 | 
O=c1c2ccccc2[se]n1-c1ccccc1 [Compound 487, Ebselen] | 102 | 
CCN1C(=O)C=CC1=O [Compound 490, N-Ethylmaleimide] | 87 | 
O=C(O)CN(CCOCCOCCN(CC(=O)O)CC(=O)O)CC(=O)O [Compound 492, Ethylene glycol-bis(2-aminoethylether)-N,N,N',N'-tetraacetic acid] | 121 | 
